Results on 12 molecules are retold here after US12011444B2, “N-substituted indole derivatives as PGE2 receptor modulators” (Idorsia Pharmaceuticals Ltd, priority 2015, dated 2024).

In general, IC50 refers to the concentration at which inhibition is half-maximal. A high value points to weaker potency.

In one test the target is PTGER2 (EP2) (Homo sapiens (Human), UniProt P43116). As to the kind of experiment: hEP2 b-arrestin assay (PathHunter HEK 293 PTGER2 b-arrestin cells). It counts as cell-based. The note with it: hEP2 b-arrestin assay (values without asterisk). An outline of the steps:
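Readout is β-galactosidase complementation luminescence, expressed as percent of DMSO control (duplicates). PathHunter HEK293 EP2/β-arrestin 2 cells, grown 24 h, received compound for 15 min at 37 °C before a 120 min challenge with PGE2 at 5 μM final, followed by 1 h detection at room temperature.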

Another test concerns the target PTRGER4 (EP4) (Homo sapiens (Human), UniProt P35408). As to the kind of experiment: hEP4 b-arrestin assay (PathHunter HEK 293 PTGER4 b-arrestin cells). The note with it: hEP4 b-arrestin assay (values without asterisk). Format: cell-based. An outline of the steps:
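Antagonist mode: compound is given 15 min at 37 °C, then 20 nM (final) PGE2 for 120 min, in HEK293 cells stably expressing EP4 fused to ProLink and β-arrestin 2 fused to EA. Recruitment read as β-gal luminescence after 1 h reagent at room temperature, as percent of DMSO control.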

Sequence of PTGER2 (EP2) (P43116 whole entry): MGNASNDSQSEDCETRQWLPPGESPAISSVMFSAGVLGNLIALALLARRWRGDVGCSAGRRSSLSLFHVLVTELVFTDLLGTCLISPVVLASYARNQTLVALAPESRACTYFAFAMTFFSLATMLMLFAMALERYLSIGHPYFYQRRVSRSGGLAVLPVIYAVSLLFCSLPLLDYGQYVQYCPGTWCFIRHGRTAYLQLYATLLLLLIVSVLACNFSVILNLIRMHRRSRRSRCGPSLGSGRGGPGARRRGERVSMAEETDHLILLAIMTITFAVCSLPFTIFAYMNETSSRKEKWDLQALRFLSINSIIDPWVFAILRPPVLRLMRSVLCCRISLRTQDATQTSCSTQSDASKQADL
Sequence of PTRGER4 (EP4) (P35408 whole entry, looked up, the tested form may be a part): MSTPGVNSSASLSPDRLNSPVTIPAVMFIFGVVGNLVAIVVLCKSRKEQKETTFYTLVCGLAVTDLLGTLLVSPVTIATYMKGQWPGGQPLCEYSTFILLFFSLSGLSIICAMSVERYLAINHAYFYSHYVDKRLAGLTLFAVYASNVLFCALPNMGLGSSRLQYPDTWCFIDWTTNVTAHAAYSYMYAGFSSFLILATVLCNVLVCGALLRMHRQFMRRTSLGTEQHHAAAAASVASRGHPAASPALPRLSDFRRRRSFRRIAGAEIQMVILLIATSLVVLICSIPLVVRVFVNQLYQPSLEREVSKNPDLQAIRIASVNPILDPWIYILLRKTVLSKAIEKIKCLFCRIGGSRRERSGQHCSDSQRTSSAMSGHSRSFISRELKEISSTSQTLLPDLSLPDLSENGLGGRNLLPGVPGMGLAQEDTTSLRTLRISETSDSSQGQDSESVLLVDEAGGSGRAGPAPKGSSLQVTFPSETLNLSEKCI

Turning to `CCCc1cc(-c2cc(NCCn3c(C#N)cc4c(OC)ccc(F)c43)ncn2)ccc1C(=O)O` [Example 947, 4-{6-[2-(2-Cyano-7-fluoro-4-methoxy-indol-1-yl)-ethylamino]-pyrimidin-4-yl}-2-propyl-benzoic acid], the IC50 on PTGER2 (EP2) worked out at 30 nM; on PTRGER4 (EP4), 16 nM.

Regarding `CCc1cc(-c2cc(NCCn3c(C#N)cc4c(OC)ccc(F)c43)ncn2)ccc1C(=O)O` [Example 948, 4-{6-[2-(2-Cyano-7-fluoro-4-methoxy-indol-1-yl)-ethylamino]-pyrimidin-4-yl}-2-ethyl-benzoic acid], the IC50 against PTGER2 (EP2) turned out to be 50 nM; against PTRGER4 (EP4), 45 nM.

On to `COc1ccc(F)c2c1cc(C#N)n2CCNc1cc(-c2ccc(C(=O)O)c(OCC(C)C)c2)ncn1` [Example 949, 4-{6-[2-(2-Cyano-7-fluoro-4-methoxy-indol-1-yl)-ethylamino]-pyrimidin-4-yl}-2-isobutoxy-benzoic acid], for which the values for the half-inhibitory concentration (IC50) on PTGER2 (EP2) and at PTRGER4 (EP4) were 7 nM and 14 nM, respectively.

As to `CCCOc1cc(-c2cc(NCCn3c(C#N)cc4c(OC)ccc(F)c43)ncn2)ccc1C(=O)O` [Example 950, 4-{6-[2-(2-Cyano-7-fluoro-4-methoxy-indol-1-yl)-ethylamino]-pyrimidin-4-yl}-2-propoxy-benzoic acid], the IC50 against PTGER2 (EP2) came to 18 nM; at PTRGER4 (EP4), 42 nM.

As for `CCSc1cc(-c2cc(NCCn3c(C#N)cc4c(C)ccc(F)c43)ncn2)ccc1C(=O)O` [Example 951, 4-{6-[2-(2-Cyano-7-fluoro-4-methyl-indol-1-yl)-ethylamino]-pyrimidin-4-yl}-2-ethylsulfanyl-benzoic acid], the IC50 is 15 nM against PTGER2 (EP2) and 27 nM against PTRGER4 (EP4).

In the case of `CCSc1cc(-c2cc(NCCn3c(C#N)cc4c(OC)cccc43)ncn2)ccc1C(=O)O` [Example 952, 4-{6-[2-(2-Cyano-4-methoxy-indol-1-yl)-ethylamino]-pyrimidin-4-yl}-2-ethylsulfanyl-benzoic acid], the IC50 stood at 5 nM against PTGER2 (EP2) and 21 nM against PTRGER4 (EP4).

For `CCSc1cc(-c2cc(NCCn3c(C#N)cc4c(OC)ccc(F)c43)ncn2)ccc1C(=O)O` [Example 953, 4-{6-[2-(2-Cyano-7-fluoro-4-methoxy-indol-1-yl)-ethylamino]-pyrimidin-4-yl}-2-ethylsulfanyl-benzoic acid], the figures for the IC50 on PTGER2 (EP2) and on PTRGER4 (EP4) were 5 nM and 21 nM, respectively.

For the molecule `CCSc1cc(-c2cc(NCCn3c(C#N)cc4c(OC)cc(F)cc43)ncn2)ccc1C(=O)O` [Example 954, 4-{6-[2-(2-Cyano-6-fluoro-4-methoxy-indol-1-yl)-ethylamino]-pyrimidin-4-yl}-2-ethylsulfanyl-benzoic acid], the IC50 was 15 nM at PTGER2 (EP2) and 41 nM against PTRGER4 (EP4).

Take `CCOc1cc(-c2cc(NCCn3c(C#N)cc4c(C)cc(F)c(F)c43)ncn2)ccc1C(=O)O` [Example 956, 4-{6-[2-(2-Cyano-6,7-difluoro-4-methyl-indol-1-yl)-ethylamino]-pyrimidin-4-yl}-2-ethoxy-benzoic acid]: the IC50 against PTGER2 (EP2) was 21 nM; against PTRGER4 (EP4), 37 nM.

In the case of `CCOc1cc(-c2cc(NCCn3c(C#N)cc4c(OC)cc(F)c(F)c43)ncn2)ccc1C(=O)O` [Example 957, 4-{6-[2-(2-Cyano-6,7-difluoro-4-methoxy-indol-1-yl)-ethylamino]-pyrimidin-4-yl}-2-ethoxy-benzoic acid], the IC50 was determined as 56 nM against PTGER2 (EP2) and 54 nM against PTRGER4 (EP4).

In the case of `CNc1cc(-c2cc(NCCn3c(C#N)cc4c(OC)cccc43)ncn2)ccc1C(=O)O` [Example 958, 4-{6-[2-(2-Cyano-4-methoxy-indol-1-yl)-ethylamino]-pyrimidin-4-yl}-2-methylamino-benzoic acid], the 50% inhibitory concentration (IC50) on PTGER2 (EP2) is 13 nM; against PTRGER4 (EP4) it was 18 nM.

As to `COC(=O)c1ccc2cc(-c3cc(NCCn4c(C#N)cc5c(OC)ccc(F)c54)ncn3)[nH]c2c1` [Example 959, 2-{6-[2-(2-Cyano-7-fluoro-4-methoxy-indol-1-yl)-ethylamino]-pyrimidin-4-yl}-1H-indole-6-carboxylic acid methyl ester], the IC50 on PTGER2 (EP2) is 3 nM; on PTRGER4 (EP4), 137 nM.
